Test system: Trichoderma harzianum
Experiment: In vitro antifungal activity assay in 96-well microtiter plates (mould growth reduction, Colby synergy)
Format: cell-based
Description: The following compositions are tested: • Control (no active ingredient), • 1.25 ppm natamycin (DSM Food Specialties, Delft, The Netherlands), • 0.5, 1.0, 1.25 or 1.5 ppm thiabendazole, • 1.25 ppm natamycin+0.5 ppm thiabendazole, • 1.25 ppm natamycin+1.0 ppm thiabendazole, • 1.25 ppm natamycin+1.25 ppm thiabendazole, • 1.25 ppm natamycin+1.5 ppm thiabendazole. […] Subsequently, 100 μl of a Trichoderma harzianum suspension prepared in PCB medium is used to inoculate each well with 5.0×10^3 spores/ml. […] After incubation of the microtiter plates for 3, 5, 10 and 17 days at 25° C., the in vitro antifungal activity (%) of the individual active ingredients was assessed by calculating the reduction in mould growth observed in the presence of the active ingredient in comparison to the mould growth observed in the absence of the active ingredient. The expected antifungal activity (E in %) of the active ingredient combination was calculated according to the Colby equation (Colby, 1967): E=X+Y−[(X·Y)/100] wherein X and Y are the observed antifungal activities (in %) of the individual active ingredients X and Y, respectively. If the observed antifungal activity (O in %) of the combination exceeds the expected antifungal activity (E in %) of the combination and the resulting synergy factor O/E is thus >1.0, the combined application of the active ingredients leads to a synergistic antifungal effect.

Measured: Observed antifungal activity O (%)

c1ccc2[nH]c(-c3cscn3)nc2c1 [Thiabendazole, 4-(1H-1,3-benzodiazol-2-yl)-1,3-thiazole]
0%: Thiabendazole 0.5 ppm, 3 days incubation at 25° C. | Thiabendazole 1.0 ppm, 5 days incubation at 25° C. | Thiabendazole 1.25 ppm, 5 days incubation at 25° C. | Thiabendazole 1.25 ppm, 10 days incubation at 25° C. | Thiabendazole 1.5 ppm, 10 days incubation at 25° C. | Thiabendazole 1.5 ppm, 17 days incubation at 25° C.

C[C@@H]1C/C=C/C=C/C=C/C=C/[C@H](O[C@@H]2O[C@H](C)[C@@H](O)[C@H](N)[C@@H]2O)C[C@@H]2O[C@](O)(C[C@@H](O)C[C@H]3O[C@@H]3/C=C/C(=O)O1)C[C@H](O)[C@H]2C(=O)O [Natamycin, natamycin]
0%: Natamycin 1.25 ppm, 3 days incubation at 25° C. | Natamycin 1.25 ppm, 5 days incubation at 25° C. | Natamycin 1.25 ppm, 10 days incubation at 25° C. | Natamycin 1.25 ppm, 17 days incubation at 25° C.

Reference: patent US20150150159A1, “METHOD FOR CONTROLLING FUNGAL DISEASES IN MUSHROOM PRODUCTION” (DSM IP ASSETS B.V., priority 2012, published 2015)
